Reference: ChEMBL document CHEMBL4265969, “Design, synthesis and biological evaluation of (2S,3R,4R,5S,6R)-5-fluoro-6-(hydroxymethyl)-2-aryltetrahydro-2H-pyran-3,4-diols as potent and orally active SGLT dual inhibitors” (Bioorg Med Chem Lett, 2018)

Legend:
[1] = Metabolic stability in rat liver microsomes at 1 uM after 10 mins in presence of NADPH; assay type: ADME, microsome; conditions: read-out: Stability
[2] = Metabolic stability in mouse liver microsomes at 1 uM after 10 mins in presence of NADPH; assay type: ADME, microsome; conditions: read-out: Stability
[3] = Metabolic stability in human liver microsomes at 1 uM after 10 mins in presence of NADPH; assay type: ADME, microsome; conditions: read-out: Stability
[4] = biological target: T1, Sodium/glucose cotransporter 2 (Homo sapiens, UniProt P31639); experiment: Inhibition of human kidneyl SGLT2 expressed in CHOK1 cells assessed as reduction in Na-dependent [14C]-AMG uptake preincubated for 10 mins followed by [14C]-AMG addition measured after 2 hrs by TopCount method; assay type: cell-based
T1 sequence (P31639 whole entry): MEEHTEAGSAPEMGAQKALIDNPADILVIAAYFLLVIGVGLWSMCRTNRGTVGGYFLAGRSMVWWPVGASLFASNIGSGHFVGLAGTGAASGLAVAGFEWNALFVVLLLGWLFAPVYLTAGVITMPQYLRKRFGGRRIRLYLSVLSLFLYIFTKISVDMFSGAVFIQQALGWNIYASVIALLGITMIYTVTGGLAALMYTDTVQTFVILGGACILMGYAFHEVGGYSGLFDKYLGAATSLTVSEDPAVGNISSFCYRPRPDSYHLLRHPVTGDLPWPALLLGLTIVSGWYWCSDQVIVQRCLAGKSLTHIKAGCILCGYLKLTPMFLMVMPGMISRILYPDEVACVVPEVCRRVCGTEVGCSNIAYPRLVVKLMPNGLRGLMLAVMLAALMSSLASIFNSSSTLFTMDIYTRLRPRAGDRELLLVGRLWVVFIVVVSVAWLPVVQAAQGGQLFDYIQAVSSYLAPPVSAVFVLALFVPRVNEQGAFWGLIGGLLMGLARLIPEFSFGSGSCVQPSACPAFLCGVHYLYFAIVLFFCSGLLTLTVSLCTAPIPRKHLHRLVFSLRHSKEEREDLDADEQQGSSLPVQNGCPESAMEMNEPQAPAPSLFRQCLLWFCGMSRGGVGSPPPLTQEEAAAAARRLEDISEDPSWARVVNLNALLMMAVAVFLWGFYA

[5] = Clearance in Sprague-Dawley rat at 2 mg/kg, iv; assay type: ADME, organism-based; conditions: in vivo
[6] = Cmax in Sprague-Dawley rat at 10 mg/kg, po; assay type: ADME, organism-based; design: dose 10 mg/kg, route oral; conditions: in vivo
[7] = AUC (0 to infinity) in Sprague-Dawley rat at 10 mg/kg, po; assay type: ADME, organism-based; design: dose 10 mg/kg, route oral, time infinity; conditions: in vivo
[8] = Volume of distribution at steady state in Sprague-Dawley rat at 2 mg/kg, iv; assay type: ADME, organism-based; conditions: in vivo, read-out: Vdss
[9] = Tmax in Sprague-Dawley rat at 10 mg/kg, po; assay type: ADME, organism-based; conditions: in vivo
[10] = Half life in Sprague-Dawley rat at 2 mg/kg, iv; assay type: ADME, organism-based; conditions: in vivo
[11] = Oral bioavailability in Sprague-Dawley rat at 10 mg/kg; assay type: ADME, organism-based; conditions: in vivo
[12] = biological target: T2, Sodium/glucose cotransporter 2 (Homo sapiens) (UniProt P31639); experiment: Inhibition of human kidneyl SGLT2 expressed in CHOK1 cells assessed as reduction in Na-dependent [14C]-AMG uptake at 0.3 uM preincubated for 10 mins followed by [14C]-AMG addition measured after 2 hrs by TopCount method relative to control; assay type: cell-based
T2 sequence (whole entry): T1 sequence (P31639 whole entry)

[13] = biological target: T3, SGLT1 (sodium/glucose cotransporter 1) (Homo sapiens, UniProt P13866); experiment: Inhibition of human small intestinal SGLT1 expressed in CHOK1 cells assessed as reduction in Na-dependent [14C]-AMG uptake at 0.3 uM preincubated for 10 mins followed by [14C]-AMG addition measured after 2 hrs by TopCount method relative to control; assay type: cell-based; conditions: CHO-K1 cells expressing human SGLT1, probe [14C]-AMG
T3 sequence (P13866 whole entry): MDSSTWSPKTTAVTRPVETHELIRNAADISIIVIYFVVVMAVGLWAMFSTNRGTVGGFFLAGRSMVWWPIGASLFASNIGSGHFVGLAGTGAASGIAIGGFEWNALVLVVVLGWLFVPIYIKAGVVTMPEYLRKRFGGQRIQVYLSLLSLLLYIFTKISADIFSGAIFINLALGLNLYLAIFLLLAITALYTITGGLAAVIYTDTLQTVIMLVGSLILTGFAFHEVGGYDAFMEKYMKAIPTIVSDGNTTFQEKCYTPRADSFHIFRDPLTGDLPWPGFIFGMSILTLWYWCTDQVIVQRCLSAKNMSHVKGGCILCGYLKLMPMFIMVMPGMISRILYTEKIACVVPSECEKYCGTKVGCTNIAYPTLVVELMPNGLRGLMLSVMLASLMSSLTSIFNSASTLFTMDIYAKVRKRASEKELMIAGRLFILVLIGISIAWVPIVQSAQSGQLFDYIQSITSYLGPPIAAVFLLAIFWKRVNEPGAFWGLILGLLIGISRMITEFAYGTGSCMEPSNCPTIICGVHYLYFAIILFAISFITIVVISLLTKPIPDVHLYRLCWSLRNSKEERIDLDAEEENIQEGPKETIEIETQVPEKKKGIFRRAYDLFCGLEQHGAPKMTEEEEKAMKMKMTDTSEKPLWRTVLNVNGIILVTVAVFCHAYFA

[14] = Half life in Sprague-Dawley rat at 10 mg/kg, po; assay type: ADME, organism-based; conditions: in vivo
[15] = Half life in human hepatocytes at 1 uM; assay type: ADME, cell-based, Hepatocyte
[16] = Half life in monkey hepatocytes at 1 uM; assay type: ADME, cell-based, Macaca mulatta, Hepatocyte; conditions: rhesus monkey
[17] = Half life in dog hepatocytes at 1 uM; assay type: ADME, cell-based, Canis lupus familiaris, Hepatocyte
[18] = Half life in Sprague-Dawley rat hepatocytes at 1 uM; assay type: ADME, cell-based, Hepatocyte

Compound: CCOC(=O)N1CCc2sc(Cc3cc([C@@H]4O[C@H](CO)[C@@H](F)[C@H](O)[C@H]4O)c(O)cc3C)cc2C1
- remaining at 10 min, 1 µM [1]: 78%
- remaining at 10 min, 1 µM [2]: 86%
- remaining at 10 min, 1 µM [3]: 80%

Compound: COc1c(Cc2ccc3c(c2)OCCO3)cc([C@@H]2O[C@H](CO)[C@@H](F)[C@H](O)[C@H]2O)c2c1CCO2
- IC50 [4]: 7.5 nM
- remaining at 10 min, 1 µM [1]: 2%
- remaining at 10 min, 1 µM [2]: 94%
- remaining at 10 min, 1 µM [3]: 91%

Compound: Cc1cc(O)c([C@@H]2O[C@H](CO)[C@@H](F)[C@H](O)[C@H]2O)cc1Cc1cc2c(s1)CCN(C(=O)N1CCCC1)C2
- IC50 [4]: 13.6 nM
- remaining at 10 min, 1 µM [1]: 82%
- remaining at 10 min, 1 µM [2]: 74%
- remaining at 10 min, 1 µM [3]: 71%

Compound: OC[C@H]1O[C@@H](c2cc(Cc3ccc4c(c3)OCCO4)c3c(c2O)CCO3)[C@H](O)[C@@H](O)[C@@H]1F
- clearance [5]: 28.1 mL/min/kg
- Cmax [6]: 168 ng/mL
- AUC(0-inf) [7]: 307 ng·h/mL
- remaining at 10 min, 1 µM [1]: 64%
- Vd [8]: 1.22 L/kg
- remaining at 10 min, 1 µM [2]: 97%
- Tmax [9]: 0.25 h
- remaining at 10 min, 1 µM [3]: 97%
- half-life [10]: 0.31 h
- bioavailability [11]: 4%

Compound: Cc1ccc([C@@H]2O[C@H](CO)[C@@H](F)[C@H](O)[C@H]2O)cc1Cc1cc2c(s1)CCN(C#N)C2
- inhibition [12]: 76%

Compound: Cc1ccc([C@@H]2O[C@H](CO)[C@@H](F)[C@H](O)[C@H]2O)cc1Cc1cc2c(s1)CCN(C(=O)C1CCCC1)C2
- inhibition [12]: 59%
- inhibition at 2 h, 0.3 µM [13]: 49%

Compound: Cc1cc(O)c([C@@H]2O[C@H](CO)[C@@H](F)[C@H](O)[C@H]2O)cc1Cc1cc2c(s1)CCN(C#N)C2
- clearance [5]: 149 mL/min/kg
- Cmax [6]: 13.7 ng/mL
- AUC(0-inf) [7]: 44.6 ng·h/mL
- IC50 [4]: 2.6 nM
- remaining at 10 min, 1 µM [1]: 79%
- Vd [8]: 3.79 L/kg
- remaining at 10 min, 1 µM [2]: 91%
- Tmax [9]: 2.2 h
- remaining at 10 min, 1 µM [3]: 95%
- half-life [10]: 0.99 h
- bioavailability [11]: 5%
- half-life [14]: 1.44 h

Compound: Cc1ncc2n1-c1ccc(Cl)cc1C(c1ccccc1F)=NC2 [MIDAZOLAM]
- half-life at 1 µM [15]: 1 h
- half-life at 1 µM [16]: 1.4 h

Compound: Cc1cc(O)c([C@@H]2O[C@H](CO)[C@@H](F)[C@H](O)[C@H]2O)cc1Cc1cc2c(s1)CCN(C(=O)c1nccs1)C2
- remaining at 10 min, 1 µM [1]: 91%
- remaining at 10 min, 1 µM [2]: 66%
- remaining at 10 min, 1 µM [3]: 69%

Compound: COc1cc(C)c(Cc2cc3c(s2)CCN(C#N)C3)cc1[C@@H]1O[C@H](CO)[C@@H](F)[C@H](O)[C@H]1O
- IC50 [4]: 5.3 nM

Compound: OC[C@H]1O[C@@H](c2cc(Cc3ccc4c(c3)OCCO4)c(O)c3c2OCC3)[C@H](O)[C@@H](O)[C@@H]1F
- inhibition [12]: 26%
- inhibition at 2 h, 0.3 µM [13]: 31%

Compound: O=C(O)Cc1ccccc1Nc1c(Cl)cccc1Cl [DICLOFENAC]
- half-life at 1 µM [17]: 5.2 h
- half-life at 1 µM [15]: 0.7 h
- half-life at 1 µM [18]: 0.8 h
- half-life at 1 µM [16]: 1 h

Compound: Cc1ccc([C@@H]2O[C@H](CO)[C@@H](F)[C@H](O)[C@H]2O)cc1Cc1cc2c(s1)CCN(C(=O)c1nccs1)C2
- inhibition [12]: 73%
- inhibition at 2 h, 0.3 µM [13]: 39%

Compound: COc1c([C@@H]2O[C@H](CO)[C@@H](F)[C@H](O)[C@H]2O)cc(Cc2ccc3c(c2)SCCO3)c2c1CCO2
- IC50 [4]: 8.3 nM
- remaining at 10 min, 1 µM [1]: 12%
- remaining at 10 min, 1 µM [2]: 61%
- remaining at 10 min, 1 µM [3]: 73%
